Patent publication US20250340565A1, “CD73 INHIBITOR COMPOUNDS” (AdoRx Therapeutics Limited, priority 2022, published 2025)
pIC50: −log10 of the molar value.

Tests used:
[1] = target: human (h)CD73 (amino acids Trp27-Lys547) (Homo sapiens, UniProt P21589); experiment: CD73 inhibition assay (Malachite Green phosphate detection); assay type: biochemical; conditions: 250 pM hCD73, 12.5 μM AMP, 20 min pre-incubation, absorbance 620 nm
Method: Compound inhibition of human (h)CD73 (amino acids Trp27-Lys547, R&D Systems 5795-EN-500) enzymatic activity was tested via the Malachite Green Phosphate Detection Kit (R&D DY996). Experiments were performed in 20 μL Tris buffer (25 mM Tris pH 7.5, 5 mM MgCl2, 0.002% Tween20), with 250 pM of hCD73. Test compounds of interest were prepared in a threefold serial dilution in DMSO and added to the assay to give the appropriate final concentration, with the assay DMSO concentration being 1%. Compounds were pre-incubated for 20 minutes with hCD73 in a 384 well clear plate (Greiner 781101), followed by the addition of adenosine monophosphate (AMP) to 12.5 μM. The enzymatic reaction was carried out for 20 min at room temperature. 5 μL of Malachite kit reagent A was added to stop the reaction (contains 3M H2SO4) and after 10 min, 5 μL of Malachite kit reagent B was added (Malachite Green). After 30 min, absorbance at 620 nm was read on a BMG Pherastar FSX.
Data were normalised to measurements in the absence of competing compound (0% inhibition) and in the presence of 10 μM control compound (100% inhibition).

[2] = target: CD73 activity in U138-MG cells (Homo sapiens (Human), UniProt P21589); experiment: U138-MG inhibition assay (inorganic phosphate from AMP, PiColorLock Gold); assay type: cell-based; conditions: 100 μM AMP, 30 min pre-incubation, 1 hour at 37° C.
CD73 activity in U138-MG cells, sequence (P21589 27-574): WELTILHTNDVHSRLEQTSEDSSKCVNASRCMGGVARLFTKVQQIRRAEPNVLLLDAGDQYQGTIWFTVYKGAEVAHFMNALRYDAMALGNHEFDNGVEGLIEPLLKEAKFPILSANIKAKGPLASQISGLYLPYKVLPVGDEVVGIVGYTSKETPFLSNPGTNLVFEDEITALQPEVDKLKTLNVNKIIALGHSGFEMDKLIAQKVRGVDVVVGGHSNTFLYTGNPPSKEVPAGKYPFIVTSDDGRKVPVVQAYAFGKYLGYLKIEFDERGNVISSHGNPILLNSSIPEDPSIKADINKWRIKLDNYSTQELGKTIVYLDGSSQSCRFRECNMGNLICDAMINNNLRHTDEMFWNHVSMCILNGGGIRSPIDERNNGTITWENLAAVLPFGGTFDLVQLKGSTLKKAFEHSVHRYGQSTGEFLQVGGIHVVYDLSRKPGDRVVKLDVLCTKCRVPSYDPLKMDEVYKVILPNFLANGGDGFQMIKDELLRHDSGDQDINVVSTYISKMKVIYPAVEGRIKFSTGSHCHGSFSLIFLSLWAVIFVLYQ
Method: U138-MG cells from ATCC are cultured in DMEM (Gibco 31966) with 10% FBS. Cells are seeded into 96-well culture plates (5,000 cell/well) in 100 μL of media for 24 hr. Cells are washed twice with 200 μL of assay buffer (20 mM HEPES, pH 7.4; 137 mM NaCl; 5.4 mM KCl; 1.3 mM CaCl2; 4.2 mM NaHCO3; 1 mg/mL glucose) to remove residual inorganic phosphate. CD73 inhibitor is added to each well in 100 μl volume and preincubated for 30 mins at 37° C. An equal volume of AMP substrate (Sigma A1572) is added to each well at a final concentration of 100 μM and incubated at 37° C. for 1 hour. Control wells containing cells but lacking added AMP, define the assay signal equivalent to 100% inhibition of CD73 activity. Supernatant is removed for measurement of inorganic phosphate using the PiColorLock Gold kit (Abcam, ab 270004).
The IC50 values of test compounds are determined as the inflection point of the sigmoidal concentration response curve.

Row | Structure (SMILES) | pIC50 [1] | pIC50 [2]
1 | CC1(C)CN(c2ncnc3sc(-c4c[nH]c(=O)[nH]c4=O)cc23)C1 [Example 1.2, 5-[4-(3,3-Dimethylazetidin-1-yl)thieno[2,3-d]pyrimidin-6-yl]-1H-pyrimidine-2,4-dione] | 6.37 | 5.99
2 | O=c1[nH]cc(-c2cc3c(N4CCC(OCCN5CCCCC5)C4)nccc3s2)c(=O)[nH]1 (centres unmarked) [Example 9, 5-[4-[3-[2-(1-Piperidyl)ethoxy]pyrrolidin-1-yl]thieno[3,2-c]pyridin-2-yl]-1H-pyrimidine-2,4-dione] | 6.55 | 
3 | CC1(C)CN(c2ccnc3sc(-c4c[nH]c(=O)[nH]c4=O)cc23)CC1(F)F [Example 14.1, 5-[4-(3,3-Difluoro-4,4-dimethyl-pyrrolidin-1-yl)thieno[2,3-b]pyridin-2-yl]-1H-pyrimidine-2,4-dione] | 6.59 | 5.88
4 | O=c1[nH]cc(-c2cc3c(NCc4ccc(Cl)cc4)ncnc3o2)c(=O)[nH]1 [Example 19.2, 5-[4-[(4-Chlorophenyl)methylamino]furo[2,3-d]pyrimidin-6-yl]-1H-pyrimidine-2,4-dione] | 5.01 | 
5 | CC(C)NC(=O)OC1CN(c2ncnc3oc(-c4c[nH]c(=O)[nH]c4=O)cc23)CC1(F)F (centres unmarked) [Example 22.2, [1-[6-(2,4-Dioxo-1H-pyrimidin-5-yl)furo[2,3-d]pyrimidin-4-yl]-4,4-difluoro-pyrrolidin-3-yl]N-isopropylcarbamate] | 6.77 | 7.26
6 | COC1CN(c2nccn3nc(-c4c[nH]c(=O)[nH]c4=O)cc23)CC1(F)F (centres unmarked) [Example 25.3, 5-[4-(3,3-difluoro-4-methoxy-pyrrolidin-1-yl)pyrazolo[1,5-a]pyrazin-2-yl]-1H-pyrimidine-2,4-dione] | 7.26 | 7.04
7 | CC1(C)CN(c2ncc(I)n3nc(-c4c[nH]c(=O)[nH]c4=O)cc23)CC1(F)F [Example 25.12, 5-[4-(3,3-difluoro-4,4-dimethyl-pyrrolidin-1-yl)-7-iodo-pyrazolo[1,5-a]pyrazin-2-yl]-1H-pyrimidine-2,4-dione] |  | 7.42
8 | CN1CCOC(COC2CN(c3ncc(F)c4nn(-c5c[nH]c(=O)[nH]c5=O)cc34)CC2(F)F)C1 (centres unmarked) [Example 26.6, 5-[4-[3,3-difluoro-4-[(4-methylmorpholin-2-yl)methoxy]pyrrolidin-1-yl]-7-fluoro-pyrazolo[4,3-c]pyridin-2-yl]-1H-pyrimidine-2,4-dione] | 7.23 | 7.96

More lines, now with the values ahead:

Row | pIC50 [1] | pIC50 [2] | Structure (SMILES)
9 | 6.71 | 5.50 | O=c1[nH]cc(-c2cc3c(N4CCC(OCc5ccccc5)C4)ncnc3s2)c(=O)[nH]1 (centres unmarked) [Example 4.2, 5-[4-(3-Benzyloxypyrrolidin-1-yl)thieno[2,3-d]pyrimidin-6-yl]-1H-pyrimidine-2,4-dione]
10 | 7.03 | 7.18 | CC1(C)CN(c2ncnc3nc(-c4c[nH]c(=O)[nH]c4=O)sc23)CC1(F)F [Example 6.1, 5-[7-(3,3-difluoro-4,4-dimethyl-pyrrolidin-1-yl)thiazolo[4,5-d]pyrimidin-2-yl]-1H-pyrimidine-2,4-dione]
11 |  | 5.60 | O=c1[nH]cc(-n2cc3c(N4C[C@@H]5COC[C@H]5C4)ncnc3n2)c(=O)[nH]1 [Example 13.10, 5-[4-[(3aR,6aR)-1,3,3a,4,6,6a-Hexahydrofuro[3,4-c]pyrrol-5-yl]pyrazolo[3,4-d]pyrimidin-2-yl]-5H-pyrimidine-2,4-dione]
12 | 6.08 | 6.13 | CC(C)NC(=O)OCC(F)(F)CNc1ncnc2oc(-c3c[nH]c(=O)[nH]c3=O)cc12 [Example 20, [3-[[6-(2,4-Dioxo-1H-pyrimidin-5-yl)furo[2,3-d]pyrimidin-4-yl]amino]-2,2-difluoro-propyl]N-isopropylcarbamate]
13 | 7.08 | 7.23 | O=c1[nH]cc(-c2cc3c(N4CC(F)(F)C5(CC5)C4)nccn3n2)c(=O)[nH]1 [Example 25.2, 5-[4-(7,7-Difluoro-5-azaspiro[2.4]heptan-5-yl)pyrazolo[1,5-a]pyrazin-2-yl]-1H-pyrimidine-2,4-dione]
14 | 6.85 | 6.94 | O=c1[nH]cc(-c2cc3c(N4CCC5(COC5)C4)nccn3n2)c(=O)[nH]1 [Example 25.4, 5-[4-(2-oxa-7-azaspiro[3.4]octan-7-yl)pyrazolo[1,5-a]pyrazin-2-yl]-1H-pyrimidine-2,4-dione]
15 | 7.14 | 6.77 | O=c1[nH]cc(-c2cc3c(N4CC(O)C(F)(F)C4)nccn3n2)c(=O)[nH]1 (centres unmarked) [Example 25.5, 5-[4-(3,3-difluoro-4-hydroxy-pyrrolidin-1-yl)pyrazolo[1,5-a]pyrazin-2-yl]-1H-pyrimidine-2,4-dione]
16 | 7.00 | 7.34 | CN1CCOC(COC2CN(c3nccn4nc(-c5c[nH]c(=O)[nH]c5=O)cc34)CC2(F)F)C1 (centres unmarked) [Example 25.6, 5-[4-[3,3-difluoro-4-[(4-methylmorpholin-2-yl)methoxy]pyrrolidin-1-yl]pyrazolo[1,5-a]pyrazin-2-yl]-1H-pyrimidine-2,4-dione]
17 | 6.88 | 7.19 | O=c1[nH]cc(-c2cc3c(N4CC(OCCN5CCOCC5)C(F)(F)C4)nccn3n2)c(=O)[nH]1 (centres unmarked) [Example 25.7, 5-[4-[3,3-difluoro-4-(2-morpholinoethoxy)pyrrolidin-1-yl]pyrazolo[1,5-a]pyrazin-2-yl]-1H-pyrimidine-2,4-dione]
18 |  | 7.74 | Cc1nc(N2CC(C)(C)C(F)(F)C2)c2cc(-c3c[nH]c(=O)[nH]c3=O)nn2c1Cl [Example 25.15, 5-[7-Chloro-4-(3,3-difluoro-4,4-dimethyl-pyrrolidin-1-yl)-6-methyl-pyrazolo[1,5-a]pyrazin-2-yl]-1H-pyrimidine-2,4-dione]
19 | 7.36 | 7.92 | COC1CN(c2ncc(F)c3nn(-c4c[nH]c(=O)[nH]c4=O)cc23)CC1(F)F (centres unmarked) [Example 26.2, 5-[4-(3,3-difluoro-4-methoxy-pyrrolidin-1-yl)-7-fluoro-pyrazolo[4,3-c]pyridin-2-yl]-1H-pyrimidine-2,4-dione]
20 | 7.45 | 7.80 | O=c1[nH]cc(-n2cc3c(N4CC(O)C(F)(F)C4)ncc(F)c3n2)c(=O)[nH]1 (centres unmarked) [Example 26.3, 5-[4-(3,3-difluoro-4-hydroxy-pyrrolidin-1-yl)-7-fluoro-pyrazolo[4,3-c]pyridin-2-yl]-1H-pyrimidine-2,4-dione]
